Measurements as given in US8354422B2, “Pyrimidine inhibitors of kinase activity” (Abbott Laboratories Inc., priority 2009, dated 2013).

Molecular target: T1, C-terminal GST-tagged, recombinant, human IGF-1R, amino acids 954-1367 (Homo sapiens, UniProt P08069)
T1 construct: human IGF-1R, amino acids 954-1367 expressed by baculovirus in Sf21 cells; GST (C); purchased Cell Signaling Technology; host or cells: baculovirus in Sf21 cells
Test: IGF-1R kinase activity, homogenous time-resolved fluorescence (HTRF) in vitro kinase assay
Assay type: biochemical
Conditions: IGF-1R kinase HTRF assay, ATP 50 μM, biotinylated peptide substrate 0.5 μM, 60 minutes at room temperature
Procedure, shortened: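 HTRF assay with baculovirus/Sf21-expressed enzyme, 50 μM ATP, 0.5 μM biotinylated peptide substrate, 2% DMSO, in HEPES pH 7.5 buffer with MgCl2, 2 mM MnCl2, BSA, DTT; 60 min at room temperature. EDTA-quenched, detected with streptavidin-APC and Eu-cryptate anti-phosphotyrosine mAb; 615/665 nm ratio used for IC50.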

T1 sequence (P08069 954-1367): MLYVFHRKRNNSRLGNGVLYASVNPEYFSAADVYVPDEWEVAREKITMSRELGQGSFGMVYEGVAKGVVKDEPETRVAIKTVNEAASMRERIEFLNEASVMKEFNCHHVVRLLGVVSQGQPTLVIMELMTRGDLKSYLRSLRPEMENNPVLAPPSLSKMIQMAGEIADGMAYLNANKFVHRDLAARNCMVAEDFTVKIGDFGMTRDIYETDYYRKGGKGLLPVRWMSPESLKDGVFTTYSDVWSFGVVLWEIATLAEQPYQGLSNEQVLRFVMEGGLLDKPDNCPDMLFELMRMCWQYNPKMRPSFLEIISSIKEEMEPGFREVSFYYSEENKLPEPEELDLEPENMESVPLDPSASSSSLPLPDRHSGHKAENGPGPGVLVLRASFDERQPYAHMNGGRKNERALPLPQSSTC

SMILES | IC50
COc1cc(N2CCC(N(C)C)CC2)ccc1Nc1nccc(-c2c(-c3ccc(OCc4ccccc4)cc3)nc3sccn23)n1 [Example 80, 4-{6-[4-(benzyloxy)phenyl]imidazo[2,1-b][1,3]thiazol-5-yl}-N-{4-[4-(dimethylamino)piperidin-1-yl]-2-methoxyphenyl}pyrimidin-2-amine] | 0.025 to 0.1 µM
COc1cc(N(C)C)ccc1Nc1nccc(-c2c(-c3ccc(OCc4ccccc4)c(OC)c3)nc3sccn23)n1 [Example 81, N^1-(4-{6-[4-(benzyloxy)-3-methoxyphenyl]imidazo[2,1-b][1,3]thiazol-5-yl}pyrimidin-2-yl)-2-methoxy-N^4,N^4-dimethylbenzene-1,4-diamine] | 0.025 to 0.1 µM
COc1cc(-c2nc3sccn3c2-c2ccnc(Nc3ccccc3CN3CCCC3)n2)ccc1OCc1ccccc1 [Example 82, 4-{6-[4-(benzyloxy)-3-methoxyphenyl]imidazo[2,1-b][1,3]thiazol-5-yl}-N-[2-(pyrrolidin-1-ylmethyl)phenyl]pyrimidin-2-amine] | > 1 µM
COc1cc(-c2nc3sccn3c2-c2ccnc(Nc3ccc(CN(C)C)cc3)n2)ccc1OCc1ccccc1 [Example 83] | 0.025 to 0.1 µM
COc1cc(N2CCC(N(C)C)CC2)ccc1Nc1nccc(-c2c(-c3ccc(OCc4ccccc4)c(OC)c3)nc3sccn23)n1 [Example 84, 4-{6-[4-(benzyloxy)-3-methoxyphenyl]imidazo[2,1-b][1,3]thiazol-5-yl}-N-{4-[4-(dimethylamino)piperidin-1-yl]-2-methoxyphenyl}pyrimidin-2-amine] | < 0.025 µM

Further lines, results first:

IC50 | SMILES
> 1 µM | c1ccc(COc2ccc(-c3nc4sccn4c3-c3ccnc(Nc4ccccc4)n3)cc2)cc1 [Example 78, 4-{6-[4-(benzyloxy)phenyl]imidazo[2,1-b][1,3]thiazol-5-yl}-N-phenylpyrimidin-2-amine]
> 1 µM | COc1ccccc1Nc1nccc(-c2c(-c3ccc(OCc4ccccc4)cc3)nc3sccn23)n1 [Example 79, 4-{6-[4-(benzyloxy)phenyl]imidazo[2,1-b][1,3]thiazol-5-yl}-N-(2-methoxyphenyl)pyrimidin-2-amine]
0.025 to 0.1 µM | COc1cc(-c2nc3sccn3c2-c2ccnc(Nc3cccc(CCN(C)C)c3)n2)ccc1OCc1ccccc1 [Example 85, 4-{6-[4-(benzyloxy)-3-methoxyphenyl]imidazo[2,1-b][1,3]thiazol-5-yl}-N-{3-[2-(dimethylamino)ethyl]phenyl}pyrimidin-2-amine]
